In US10981894B2, “Melanocortin subtype-2 receptor (MC2R) antagonists and uses thereof” (Crinetics Pharmaceuticals, Inc., priority 2018, dated 2021) one finds Ki data, which are given here for 24 compounds.

SMILES strings stand for the structures.

Chain of hMC2 receptor (Q01718 whole entry): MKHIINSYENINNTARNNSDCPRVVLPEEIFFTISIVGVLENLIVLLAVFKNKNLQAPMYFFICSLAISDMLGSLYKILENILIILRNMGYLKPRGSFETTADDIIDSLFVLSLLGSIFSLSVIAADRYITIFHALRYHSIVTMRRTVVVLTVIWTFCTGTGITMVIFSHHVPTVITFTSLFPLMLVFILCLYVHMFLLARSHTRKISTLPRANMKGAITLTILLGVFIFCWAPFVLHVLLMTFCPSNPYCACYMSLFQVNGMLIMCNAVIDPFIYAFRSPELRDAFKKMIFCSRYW
Chain of hMC2 receptor (Q8TCY5 whole entry partner): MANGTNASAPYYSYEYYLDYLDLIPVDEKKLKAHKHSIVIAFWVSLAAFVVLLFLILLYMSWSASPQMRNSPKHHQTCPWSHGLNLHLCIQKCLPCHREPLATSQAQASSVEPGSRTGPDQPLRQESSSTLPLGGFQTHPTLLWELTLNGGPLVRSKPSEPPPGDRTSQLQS

The target of the assay is hMC2 receptor (Homo sapiens, UniProt Q01718). In words: hMC2 membrane binding assay ([125I]ACTH (1-39) Tyr23, SPA). On the set-up: scale not given here. As to conditions: crude hMC2R membranes from CRE-bla-CHO-K1 cells expressing hMC2 receptor and hMRAP; [125I]ACTH (1-39) Tyr23 0.2 nM; 1.5 hours at room temperature; read-out: MC2R binding potency. In short, it runs like this:
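CRE-bla-CHO-K1 membranes co-expressing hMC2 receptor and hMRAP, preincubated with WGA PVT SPA beads in pH 7.4 HEPES/MgCl2/CaCl2/0.2% BSA buffer. Compounds (typically 0–10,000 nM final) compete with 0.2 nM [125I]ACTH(1-39) Tyr23 for 1.5 h at room temperature. SPA counts give Ki by non-linear regression.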
For `CCOc1ncccc1-c1ccc(N2CCN(C(=O)c3ccc(Cl)cc3C(F)(F)F)C[C@H]2CC)c(C(=O)NCCc2nccn2C)n1` [Compound 1-234, 5-[(2R)-4-[4-chloro-2-(trifluoromethyl)benzoyl]-2-ethylpiperazin-1-yl]-2′-ethoxy-N-[2-(1-methyl-1H-imidazol-2-yl)ethyl]-[2,3′-bipyridine]-6-carboxamide], the Ki is less than 10 nM. The figure for `CCOc1ccncc1-c1ccc(N2CCN(C(=O)c3ccc(C(F)(F)F)cc3Cl)C[C@H]2CC)c(C(=O)NCCN)c1` [Compound 1-35, N-(2-aminoethyl)-2-[(2R)-4-[2-chloro-4-(trifluoromethyl)benzoyl]-2-ethylpiperazin-1-yl]-5-(4-ethoxypyridin-3-yl)benzamide] is less than 10 nM; for `CCOc1ncccc1-c1ccc(N2CCN(C(=O)c3sc(Cl)cc3Cl)C[C@H]2CC)c(C(=O)N[C@@H]2CCN(C)C2)n1` [Compound 1-380, 5-[(2R)-4-(3,5-dichlorothiophene-2-carbonyl)-2-ethylpiperazin-1-yl]-2′-ethoxy-N-[(3R)-1-methylpyrrolidin-3-yl]-[2,3′-bipyridine]-6-carboxamide] it is less than 10 nM; for `CC[C@@H]1CN(C(=O)c2ccc(OC)nc2C(F)(F)F)CCN1c1ccc(-c2cccnc2OC)nc1C(=O)NC1CN(C)C1` [Compound 1-246, 5-[(2R)-2-ethyl-4-[6-methoxy-2-(trifluoromethyl)pyridine-3-carbonyl]piperazin-1-yl]-2′-methoxy-N-(1-methylazetidin-3-yl)-[2,3′-bipyridine]-6-carboxamide] it is less than 10 nM. As for `CCOc1ncccc1-c1ccc(N2CCN(C(=O)c3ccc(F)cc3N3CCC(CN)C3)C[C@H]2CC)c(C(=O)NCCN)c1` (stereo partly drawn) [Compound 1-51, N-(2-aminoethyl)-2-[(2R)-4-{2-[3-(aminomethyl)pyrrolidin-1-yl]-4-fluorobenzoyl}-2-ethylpiperazin-1-yl]-5-(2-ethoxypyridin-3-yl)benzamide], the Ki was less than 10 nM. Consider `CCOc1ncccc1-c1ccc(N2CCN(C(=O)c3ccc(F)cc3N3CC(N)C3)C[C@H]2CC)c(C(=O)NCCN(C)C)c1` [Compound 1-148, 2-[(2R)-4-[2-(3-aminoazetidin-1-yl)-4-fluorobenzoyl]-2-ethylpiperazin-1-yl]-N-[2-(dimethylamino)ethyl]-5-(2-ethoxypyridin-3-yl)benzamide], for which the Ki was less than 10 nM.

With `CCOc1ncccc1-c1ccc(N2CCN(C(=O)c3ccc(Cl)cc3C(F)(F)F)C[C@H]2CC)c(C(=O)NCCN)c1F` [Compound 1-69, N-(2-aminoethyl)-6-[(2R)-4-[4-chloro-2-(trifluoromethyl)benzoyl]-2-ethylpiperazin-1-yl]-3-(2-ethoxypyridin-3-yl)-2-fluorobenzamide], the Ki is less than 10 nM. Under `CCOc1ncccc1-c1ccc(N2CCN(C(=O)c3ccc(F)cc3C(F)(F)F)C[C@H]2CC)c(CN)n1` [Compound 2-20, 1-{2′-ethoxy-5-[(2R)-2-ethyl-4-[4-fluoro-2-(trifluoromethyl)benzoyl]piperazin-1-yl]-[2,3′-bipyridin]-6-yl}methanamine] stands less than 10 nM; under `CCOc1ncccc1-c1ccc(N2CCN(C(=O)C3(C(F)(F)F)CCCC3)C[C@H]2CC)c(C(=O)NCC2=NCCN2C)n1` [Compound 1-415, 2′-ethoxy-5-[(2R)-2-ethyl-4-[1-(trifluoromethyl)cyclopentanecarbonyl]piperazin-1-yl]-N-[(1-methyl-4,5-dihydro-1H-imidazol-2-yl)methyl]-[2,3′-bipyridine]-6-carboxamide], less than 10 nM; under `CCOc1ncccc1-c1ccc(N2CCN(C(=O)C3(C(F)(F)F)CCC3)C[C@H]2CC)c(C(=O)N[C@@H]2CCNC2)n1` [Compound 1-280, 2′-ethoxy-5-[(2R)-2-ethyl-4-[1-(trifluoromethyl)cyclobutanecarbonyl]piperazin-1-yl]-N-[(3R)-pyrrolidin-3-yl]-[2,3′-bipyridine]-6-carboxamide], less than 10 nM.

On to `CCOc1ncccc1-c1ccc(N2CCN(C(=O)c3ccc(OC)nc3C(F)(F)F)C[C@H]2CC)c(C(=O)NC[C@@H]2CCN2)n1` [Compound 1-244, N-{[(2S)-azetidin-2-yl]methyl}-2′-ethoxy-5-[(2R)-2-ethyl-4-[6-methoxy-2-(trifluoromethyl)pyridine-3-carbonyl]piperazin-1-yl]-[2,3′-bipyridine]-6-carboxamide], for which the Ki was less than 10 nM. As to `CCOc1ncccc1-c1ccc(N2CCN(C(=O)N3CCC[C@H]3c3cccc(F)c3)C[C@H]2CC)c(C(=O)N[C@@H]2CCN(C)C2)n1` [Compound 1-381, 2′-ethoxy-5-[(2R)-2-ethyl-4-[(2S)-2-(3-fluorophenyl)pyrrolidine-1-carbonyl]piperazin-1-yl]-N-[(3R)-1-methylpyrrolidin-3-yl]-[2,3′-bipyridine]-6-carboxamide], the Ki is less than 10 nM. The figure for `CCOc1ncccc1-c1ccc(N2CCN(C(=O)C3(C(F)(F)F)CC4CCC3C4)C[C@H]2CC)c(C(=O)N[C@@H]2CCNC2)n1` (stereo partly drawn) [Compound 1-297, 2′-ethoxy-5-[(2R)-2-ethyl-4-[2-(trifluoromethyl)bicyclo[2.2.1]heptane-2-carbonyl]piperazin-1-yl]-N-[(3R)-pyrrolidin-3-yl]-[2,3′-bipyridine]-6-carboxamide] is less than 10 nM; for `CCOc1ncccc1-c1ccc(N2CCN(C(=O)C3(C(F)(F)F)CCC3)C[C@H]2CC)c(C(=O)NC[C@@H]2CCN2C)n1` [Compound 1-390, 2′-ethoxy-5-[(2R)-2-ethyl-4-[1-(trifluoromethyl)cyclobutanecarbonyl]piperazin-1-yl]-N-{[(2S)-1-methylazetidin-2-yl]methyl}-[2,3′-bipyridine]-6-carboxamide] it is 10 to 100 nM; for `CCOc1ncccc1-c1ccc(N2CCN(C(=O)N3CCC[C@H]3C(C)(C)F)C[C@H]2CC)c(C(=O)N[C@@H]2CCN(C)C2)n1` [Compound 1-413, 2′-ethoxy-5-[(2R)-2-ethyl-4-[(2S)-2-(2-fluoropropan-2-yl)pyrrolidine-1-carbonyl]piperazin-1-yl]-N-[(3R)-1-methylpyrrolidin-3-yl]-[2,3′-bipyridine]-6-carboxamide] it is less than 10 nM. Under `CCOc1ncccc1-c1ccc(N2CCN(C(=O)c3ccc(Cl)cc3C#N)C[C@H]2CC)c(C(=O)NCCN)c1` [Compound 1-117, N-(2-aminoethyl)-2-[(2R)-4-(4-chloro-2-cyanobenzoyl)-2-ethylpiperazin-1-yl]-5-(2-ethoxypyridin-3-yl)benzamide] stands less than 10 nM; under `CCOc1ccccc1-c1ccc(N2CCN(C(=O)N3CCc4cc(F)cc(Cl)c43)C[C@H]2CC)c(C(=O)N[C@H]2CCN(C)C2)n1` [Compound 1-421, 3-[(2R)-4-(7-chloro-5-fluoro-2,3-dihydro-1H-indole-1-carbonyl)-2-ethylpiperazin-1-yl]-6-(2-ethoxyphenyl)-N-[(3S)-1-methylpyrrolidin-3-yl]pyridine-2-carboxamide], less than 10 nM. Under `CCOc1ncccc1-c1ccc(N2CCN(C(=O)c3ccc(Cl)cc3C(F)(F)F)C[C@H]2CC)c(C(=O)NCCN2CCCC2)c1` [Compound 1-49, 2-[(2R)-4-[4-chloro-2-(trifluoromethyl)benzoyl]-2-ethylpiperazin-1-yl]-5-(2-ethoxypyridin-3-yl)-N-[2-(pyrrolidin-1-yl)ethyl]benzamide] stands less than 10 nM; under `CCOc1ccc(C(=O)N2CCN(c3ccc(-c4cccnc4OCC)nc3C(=O)NC[C@@H]3CCN3C)[C@H](CC)C2)c(C(F)(F)F)n1` [Compound 1-257, 2′-ethoxy-5-[(2R)-4-[6-ethoxy-2-(trifluoromethyl)pyridine-3-carbonyl]-2-ethylpiperazin-1-yl]-N-{[(2S)-1-methylazetidin-2-yl]methyl}-[2,3′-bipyridine]-6-carboxamide], less than 10 nM. `CCOc1ncccc1-c1ccc(N2CCN(C(=O)c3ccc(Cl)cc3C(F)(F)F)C[C@H]2CC)c(C(=O)NCCNC)c1F` [Compound 1-95, 6-[(2R)-4-[4-chloro-2-(trifluoromethyl)benzoyl]-2-ethylpiperazin-1-yl]-3-(2-ethoxypyridin-3-yl)-2-fluoro-N-[2-(methylamino)ethyl]benzamide]: the Ki was less than 10 nM.

`CCOc1ccccc1-c1ccc(N2CCN(C(=O)c3ccc(OC)nc3C(F)(F)F)C[C@H]2CC)c(C(=O)N[C@@H]2CCN(C)C2)n1` [Compound 1-253, 6-(2-ethoxyphenyl)-3-[(2R)-2-ethyl-4-[6-methoxy-2-(trifluoromethyl)pyridine-3-carbonyl]piperazin-1-yl]-N-[(3R)-1-methylpyrrolidin-3-yl]pyridine-2-carboxamide]: the Ki was less than 10 nM. Under `CCOc1ncccc1-c1ccc(N2CCN(C(=O)c3ccc(OC)nc3C(F)(F)F)C[C@H]2CC)c(C(=O)NC2CN(C)C2)n1` [Compound 1-230, 2′-ethoxy-5-[(2R)-2-ethyl-4-[6-methoxy-2-(trifluoromethyl)pyridine-3-carbonyl]piperazin-1-yl]-N-(1-methylazetidin-3-yl)-[2,3′-bipyridine]-6-carboxamide] stands less than 10 nM; under `CCOc1ccccc1-c1ccc(N2CCN(C(=O)N3CCC[C@H]3C(F)(F)F)C[C@H]2CC)c(C(=O)N[C@@H]2CCN(C)C2)n1` [Compound 1-374, 6-(2-ethoxyphenyl)-3-[(2R)-2-ethyl-4-[(2S)-2-(trifluoromethyl)pyrrolidine-1-carbonyl]piperazin-1-yl]-N-[(3R)-1-methylpyrrolidin-3-yl]pyridine-2-carboxamide], less than 10 nM. The figure for `CCOc1ncccc1-c1ccc(N2CCN(C(=O)c3ccc(Cl)cc3C(F)(F)F)C[C@H]2CC)c(C(=O)NCCN(C)C)n1` [Compound 1-150, 5-[(2R)-4-[4-chloro-2-(trifluoromethyl)benzoyl]-2-ethylpiperazin-1-yl]-N-[2-(dimethylamino)ethyl]-2′-ethoxy-[2,3′-bipyridine]-6-carboxamide Acetate] is less than 10 nM.
